From ChEMBL document CHEMBL5393456, “Dichlorophenol hsd17b13 inhibitors and uses thereof” (2022)

Target: T1, 17-beta-hydroxysteroid dehydrogenase 13 (Homo sapiens, UniProt Q7Z5P4)
T1 sequence (Q7Z5P4 whole entry): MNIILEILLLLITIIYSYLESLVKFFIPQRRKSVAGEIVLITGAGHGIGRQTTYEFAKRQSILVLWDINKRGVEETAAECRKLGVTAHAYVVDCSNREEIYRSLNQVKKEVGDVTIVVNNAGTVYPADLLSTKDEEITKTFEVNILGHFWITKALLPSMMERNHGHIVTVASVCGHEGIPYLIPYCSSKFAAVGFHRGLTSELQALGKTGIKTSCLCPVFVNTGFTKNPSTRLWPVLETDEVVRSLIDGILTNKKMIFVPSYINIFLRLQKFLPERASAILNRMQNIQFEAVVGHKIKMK
Assay: Inhibition of His-tagged HSD17B13 (unknown origin) expressed in Escherichia coli using estradiol as substrate incubated for 2 hrs and measured by LC/MS estrone detection assay

SMILES | IC50
O=C(Nc1cccc2ncn(Cc3ccn(-c4ccccc4F)n3)c(=O)c12)c1cc(Cl)c(O)c(Cl)c1 | ≤ 100 nM
Cc1nc2c(Cl)ccc(NC(=O)c3cc(Cl)c(O)c(Cl)c3)c2c(=O)n1Cc1ccccc1C(F)(F)F | ≤ 100 nM
O=C(Nc1cccc2ncn(Cc3cccnc3C(F)(F)F)c(=O)c12)c1cc(Cl)c(O)c(Cl)c1 | ≤ 100 nM
O=C(Nc1cccc2ncn(Cc3n[nH]c4ccccc34)c(=O)c12)c1cc(Cl)c(O)c(Cl)c1 | ≤ 100 nM
Cc1nsc(NC(=O)c2cc(Cl)c(O)c(Cl)c2)c1C(=O)N[C@@H](C)c1ccccc1F | ≤ 100 nM
C[C@@H](c1cccc(F)c1)n1cnc2cccc(NC(=O)c3cc(Cl)c(O)c(Cl)c3)c2c1=O | ≤ 100 nM
O=C(Nc1cccc2ncn(Cc3ccccc3C(F)(F)F)c(=O)c12)c1cc(Cl)c(O)c(Cl)n1 | ≤ 100 nM
O=C(Nc1cc(Cl)sc1C(=O)NCc1ccccc1OC(F)(F)F)c1cc(Cl)c(O)c(Cl)c1 | ≤ 100 nM
Cc1nc2c(F)ccc(NC(=O)c3cc(Cl)c(O)c(Cl)c3)c2c(=O)n1Cc1ccccc1C(F)(F)F | ≤ 100 nM
Cn1nc(CNC(=O)c2ncsc2NC(=O)c2cc(Cl)c(O)c(Cl)c2)c2ccccc21 | ≤ 100 nM
O=C(Nc1cccc2ncn(Cc3ncccc3C(F)(F)F)c(=O)c12)c1cc(Cl)c(O)c(Cl)c1 | ≤ 100 nM
Cn1c(=O)n(Cc2ccccc2OC(F)(F)F)c(=O)c2c(NC(=O)c3cc(Cl)c(O)c(Cl)c3)cccc21 | ≤ 100 nM
Cc1nc2c(F)ccc(NC(=O)c3cc(Cl)c(O)c(Cl)c3)c2c(=O)n1Cc1ncccc1C(F)(F)F | ≤ 100 nM
O=C(NCc1ccccc1OC(F)(F)F)C1CCCN1C(=O)c1cc(Cl)c(O)c(Cl)n1 (stereo not drawn) | > 10000 nM
[2H]C([2H])(c1ccccc1C(F)(F)F)n1c(C)nc2c(C)ccc(NC(=O)c3cc(Cl)c(O)c(Cl)c3)c2c1=O | ≤ 100 nM
CN(C)CCOc1ccc(NC(=O)c2cc(Cl)c(O)c(Cl)c2)c(C(=O)NCc2ccccc2OC(F)(F)F)c1 | > 10000 nM
O=C(Nc1ccc(F)c2ncn(Cc3ccccc3OC(F)(F)F)c(=O)c12)c1cc(Cl)c(O)c(Cl)c1 | ≤ 100 nM
O=C(Nc1cccc2ncn(Cc3ncccc3Cl)c(=O)c12)c1cc(Cl)c(O)c(Cl)c1 | ≤ 100 nM
O=C(Nc1cccc2ncn(Cc3ccc(C(F)(F)F)cc3)c(=O)c12)c1cc(Cl)c(O)c(Cl)c1 | ≤ 100 nM
Cc1nc2c(F)ccc(NC(=O)c3cc(Cl)c(O)c(Cl)c3)c2c(=O)n1Cc1nn(C)c2ccccc12 | ≤ 100 nM
O=C(Nc1scnc1C(=O)NCc1cccc(F)c1)c1cc(Cl)c(O)c(Cl)c1 | ≤ 100 nM

SMILES | IC50
Cc1ccc(NC(=O)c2cc(Cl)c(O)c(Cl)n2)c2c(=O)n(Cc3ccccc3OC(F)(F)F)c(C(F)F)nc12 | ≤ 100 nM
O=C(Nc1cccc2ncn(Cc3cccc(OC(F)(F)F)c3)c(=O)c12)c1cc(Cl)c(O)c(Cl)c1 | ≤ 100 nM
O=C(Nc1scnc1C(=O)NCc1ccccc1OC(F)(F)F)c1cc(Cl)c(O)c(Cl)c1 | ≤ 100 nM
O=C(Nc1ccc(F)c2ncn(Cc3ccccc3C(F)(F)F)c(=O)c12)c1cc(Cl)c(O)c(Cl)n1 | ≤ 100 nM
Cc1ccc(NC(=O)c2cc(Cl)c(O)c(Cl)c2)c2c(=O)n(Cc3ncccc3C(F)(F)F)c(C)nc12 | ≤ 100 nM
Cc1ccc(NC(=O)c2cc(Cl)c(O)c(Cl)n2)c2c(=O)n(Cc3ccccc3OC(F)(F)F)c(C)nc12 | ≤ 100 nM
O=C(Nc1cccc2ncn(Cc3ccccc3-c3ccccn3)c(=O)c12)c1cc(Cl)c(O)c(Cl)c1 | ≤ 500 nM
Cc1ccc(NC(=O)c2cc(Cl)c(O)c(Cl)c2)c2c(=O)n([C@@H]3CC[C@H]3c3ccccc3)c(C)nc12 | ≤ 100 nM
[2H]C([2H])([2H])c1nc2c(C)ccc(NC(=O)c3cc(Cl)c(O)c(Cl)c3)c2c(=O)n1Cc1ccccc1C(F)(F)F | ≤ 100 nM
Cc1ccc(NC(=O)c2cc(Cl)c(O)c(Cl)c2)c2c(=O)n(Cc3ccccc3OC(F)(F)F)c(C(F)F)nc12 | ≤ 100 nM
Cn1nc(Cn2cnc3cccc(NC(=O)c4cc(Cl)c(O)c(Cl)c4)c3c2=O)c2ccccc21 | ≤ 100 nM
Cc1ccc(NC(=O)c2cc(Cl)c(O)c(Cl)c2)c2c(=O)n(Cc3ccccc3OC(F)(F)F)c(C)nc12 | ≤ 100 nM
O=C(Nc1cccc2ncn(Cc3cccc(C(F)(F)F)c3)c(=O)c12)c1cc(Cl)c(O)c(Cl)c1 | ≤ 100 nM
Cc1nc2c(F)ccc(NC(=O)c3cc(Cl)c(O)c(Cl)c3)c2c(=O)n1Cc1ccccc1OC(F)(F)F | ≤ 100 nM
COc1ccccc1CCNC(=O)c1sccc1NC(=O)c1cc(Cl)c(O)c(Cl)c1 | ≤ 100 nM
Cc1ccc(NC(=O)c2cc(Cl)c(O)c(Cl)c2)c2c(=O)n(Cc3ccccc3C(F)(F)F)c(CF)nc12 | ≤ 100 nM
Cc1nc2nccc(NC(=O)c3cc(Cl)c(O)c(Cl)c3)c2c(=O)n1Cc1ccccc1OC(F)(F)F | ≤ 100 nM
NS(=O)(=O)c1ccccc1Cn1cnc2cccc(NC(=O)c3cc(Cl)c(O)c(Cl)c3)c2c1=O | > 10000 nM
Cc1ccc(NC(=O)c2cc(Cl)c(O)c(Cl)c2)c2c(=O)n(Cc3ccccc3C(F)(F)F)c(C)nc12 | ≤ 100 nM
C[C@H](c1cccc(F)c1)n1cnc2cccc(NC(=O)c3cc(Cl)c(O)c(Cl)c3)c2c1=O | ≤ 100 nM
O=C(NCc1ccccc1OC(F)(F)F)C1CCCN1C(=O)c1cc(Cl)c(O)c(Cl)c1 (stereo not drawn) | > 10000 nM

SMILES | IC50
O=C(Nc1cccc2ncn(Cc3ccccc3N3CCOCC3)c(=O)c12)c1cc(Cl)c(O)c(Cl)c1 | ≤ 100 nM
Cc1ccc(NC(=O)c2cc(Cl)c(O)c(Cl)c2)c2c(=O)n(Cc3ccccc3OC(F)(F)F)cnc12 | ≤ 100 nM
O=C(Nc1scnc1C(=O)NCc1ccccc1OC(F)(F)F)c1cc(Cl)c(O)c(Cl)n1 | ≤ 100 nM
O=C(Nc1ccc(F)c2ncn(Cc3ccccc3C(F)(F)F)c(=O)c12)c1cc(Cl)c(O)c(Cl)c1 | ≤ 100 nM
[2H]C([2H])([2H])c1nc2c(C)ccc(NC(=O)c3cc(Cl)c(O)c(Cl)c3)c2c(=O)n1Cc1ccccc1OC(F)(F)F | ≤ 100 nM
O=C(N[C@H]1CCCC[C@@H]1C(=O)NCc1ccccc1OC(F)(F)F)c1cc(Cl)c(O)c(Cl)n1 | > 10000 nM
O=C(Nc1scnc1C(=O)NCc1ccccc1C(F)(F)F)c1cc(Cl)c(O)c(Cl)c1 | ≤ 100 nM
N#Cc1ccccc1Cn1cnc2cccc(NC(=O)c3cc(Cl)c(O)c(Cl)c3)c2c1=O | ≤ 100 nM
Cc1nc2c(F)ccc(NC(=O)c3cc(Cl)c(O)c(Cl)n3)c2c(=O)n1Cc1ccccc1OC(F)(F)F | ≤ 100 nM
O=C(Nc1cccc2ncn(Cc3ccccc3F)c(=O)c12)c1cc(Cl)c(O)c(Cl)n1 | ≤ 100 nM
Cc1nc2cccc(NC(=O)c3cc(Cl)c(O)c(Cl)c3)c2c(=O)n1Cc1ccccc1OC(F)(F)F | ≤ 100 nM
O=C(Nc1cccc2ncn(Cc3ccccc3OC(F)(F)F)c(=O)c12)c1cc(Cl)c(O)c(Cl)c1 | ≤ 100 nM
Cc1ccc(NC(=O)c2cc(Cl)c(O)c(Cl)c2)c2c(=O)n(Cc3ccccc3C(F)(F)F)c(C(F)F)nc12 | ≤ 100 nM
O=C(Nc1cccc2ncn(C(c3ccccc3)c3ccccc3)c(=O)c12)c1cc(Cl)c(O)c(Cl)c1 | ≤ 100 nM
O=C(Nc1cccc2ncn(Cc3ccccc3C(F)(F)F)c(=O)c12)c1cc(Cl)c(O)c(Cl)c1 | ≤ 100 nM
O=C(Nc1ccc(Cl)c2ncn(Cc3ccccc3OC(F)(F)F)c(=O)c12)c1cc(Cl)c(O)c(Cl)c1 | ≤ 100 nM
C[C@@H](c1cccc(F)c1)n1cnc2cccc(NC(=O)c3cc(Cl)c(O)c(Cl)n3)c2c1=O | ≤ 100 nM
O=C(Nc1cc(Cl)sc1C(=O)NCCc1ccccc1OC(F)(F)F)c1cc(Cl)c(O)c(Cl)c1 | ≤ 500 nM
[2H]C([2H])([2H])c1nc2c(C)ccc(NC(=O)c3cc(Cl)c(O)c(Cl)n3)c2c(=O)n1Cc1ccccc1OC(F)(F)F | ≤ 100 nM
O=C(Nc1cccc2ncn(Cc3cccc(F)c3)c(=O)c12)c1cc(Cl)c(O)c(Cl)n1 | ≤ 100 nM
O=C(Nc1cccc2ncn(C3(c4ccccc4F)CC3)c(=O)c12)c1cc(Cl)c(O)c(Cl)c1 | ≤ 100 nM
